Format in all cases: cell-based, Streptococcus mutans
One assay has as its system S. mutans UA159. Briefly: Biofilm growth CFU assay (fraction biofilm and total growth). The note with it: for fractional biofilm formation (cells in biofilm relative to whole population), in words / overall (total) growth of the bacterial population / toxicity to S. mutans: 5 h, TH25% with 1% sucrose; for fractional biofilm formation (cells in biofilm relative to whole population), in words: 96-well polystyrene plate; for overall (total) growth of the bacterial population / toxicity to S. mutans: biofilm CFU per ml + supernatant CFU per ml. How it is done: The bacterial strain S. mutans UA159 (ATCC, 700610) was originally isolated from a child with active cavities. Bacteria were cultivated in Bacto Todd-Hewitt broth (TH; BD, 249240) or brain-heart infusion (BHI; BD, 237500) 1.5% agar plates at 37° C. with 5% CO2. To promote biofilm formation, S. mutans was grown in 25% TH supplemented with 1% sucrose.
(§1) Overnight cultures of S. mutans UA159 were inoculated from glycerol stocks and grown for 12-18 h in 50% TH at 37° C. with 5% CO2. Biofilms were prepared by diluting overnight cultures 1:20 into 50-100 μl of media (TH25% with 1% sucrose) and any polymer solution in a 96-well polystyrene plate for a starting inoculum of 10^7-10^8 CFU per ml. The cultures were then incubated statically for 5 hours at 37° C. with 5% CO2.
To measure total growth and relative biofilm formation, the number of cells in the biofilm and in suspension were counted using a colony forming unit (CFU) assay as previously described. See Werlang, C. A. et al., “Mucin O-glycans suppress quorum-sensing pathways and genetic transformation in Streptococcus mutans,” Nat. Microbiol. 1-10 (2021) doi: 10.1038/s41564-021-00876-1, which is incorporated herein in its entirety by reference for all purposes. Briefly, the supernatant was removed and transferred to a new 96-well plate, the biofilm was washed twice with 100 μl of phosphate-buffered saline (PBS), and the washes were added to the supernatant. The biofilm was then detached and resuspended in 100 μl of PBS by vigorously scraping with a pipette tip for 30 s. Each culture fraction was then serially diluted and plated on BHI agar. Colonies were counted after 24 h growth at 37° C. with 5% CO2. The fraction biofilm was calculated as (biofilm CFU per ml)/(biofilm CFU per ml+supernatant CFU per ml). The total growth was calculated as biofilm CFU per ml+supernatant CFU per ml. All of the conditions had at least three biological replicates (individual data points shown on graphs).

Assay [1] relates to S. mutans biofilms. Briefly: Total biofilm biomass by crystal violet staining. Conditions: for total bacterial biomass incl. exopolysaccharides (crystal violet), in words: OD 580 nm. How it is done: as §1
Total biofilm biomass was measured using crystal violet staining. The supernatant was aspirated, and the biofilm was washed twice with 100 μl of PBS. Then 100 μl of 0.1% crystal violet was added to each well and incubated for 15 minutes at room temperature. The crystal violet solution was removed, and the stained biofilms were washed five times with 200 μl of distilled water. Finally, 100 μl of 30% acetic acid was added to each well to extract the absorbed crystal violet, and the OD was measured at 580 nm on a microtiter plate reader.

For assay [2], the system named is S. mutans biofilms. Description: Confocal microscopy of SYTO9-stained biofilms. Conditions: SYTO9 stain. How it is done: For confocal microscopy, S. mutans biofilms were prepared as described above on 96-well glass-bottom plates with 5 nM of SYTO9 green fluorescent nucleic acid stain (ThermoFisher, S34854) added to the cultures. Cultures were imaged on a confocal laser-scanning microscope (LSM 800; Zeiss) with a 63×/1.4 NA oil immersion objective with a step size of 0.5 μm. The excitation wavelength for SYTO9 was 488 nm. At least three stacks were recorded for each well, and at least three independent wells were analyzed for each condition. Images were analyzed with Zeiss ZEN 2.1 imaging software (Thornwood, NY, USA).

In the next assay the test system is S. mutans. Description: Polymer attachment assay (bacterial attachment to polymer coating). Conditions: coatings from 2 mg per ml polymer on polystyrene, 1 hour at 37° C. The procedure:
Bacterial attachment to polymer coating was assayed as previously described. See Co, J. Y., Crouzier, T. & Ribbeck, K., “Probing the Role of Mucin-Bound Glycans in Bacterial Repulsion by Mucin Coatings,” Adv. Mater. Interfaces 2, 1500179 (2015), which is incorporated herein in its entirety by reference for all purposes. Briefly, coatings were prepared by incubating 100 μl of polymer solutions (2 mg per ml in Milli-Q purified water) on 96-well polystyrene plates for 2 h at 37° C., followed by three washes with 200 μl of sterile-filtered distilled water. Overnight cultures of S. mutans were centrifuged and resuspended in sterile PBS at an OD600 of 0.4, and 50 μl of the washed culture were added to each well. The bacteria were incubated on the coating for 1 hour at 37° C. To measure cell attachment, unattached bacteria were aspirated, wells were washed three times with 200 μl of PBS, and the remaining bacteria were detached with a pipette and resuspended in PBS before being quantified by a CFU assay.

“Also recorded” adds a separate entry of the source.

Three molecules from patent US20250195613A1, “COMPOSITIONS AND METHODS FOR REDUCING BIOFILM FORMATION” (Trustees of Tufts College, priority 2022, published 2025) can be followed below.

For `CC(=O)N[C@H]1C(O)O[C@H](CO)[C@H](O)[C@@H]1O` (stereo partly drawn) [Soluble GalNAc, N-acetyl galactosamine], the “fractional biofilm formation (cells in biofilm relative to whole population), in words” value in the assay on S. mutans UA159 was “do not have a statistically significant impact”.
For the molecule `CC(=O)N[C@H]1[C@H]([C@H](O)[C@H](O)CO)OC(O)(C(=O)O)C[C@@H]1O` (stereo partly drawn) [soluble NeuNAc, N-Acetylneuraminic acid], in the assay with S. mutans biofilms [1], the “total bacterial biomass incl. exopolysaccharides (crystal violet), in words” value was “reduction in total bacterial biomass”. In the assay with S. mutans UA159, the “fractional biofilm formation (cells in biofilm relative to whole population), in words” value is recorded as “small proportional reduction in the fraction of biofilm” and the “overall (total) growth of the bacterial population / toxicity to S. mutans” value was “toxic to S. mutans; also recorded: strong killing effect”.
Regarding “MUC5B: mucin purified by liquid chromatography from pooled human submandibular saliva”, in the assay with S. mutans biofilms [1], the “total bacterial biomass incl. exopolysaccharides (crystal violet), in words” value is reported as “reduce the total bacterial biomass”. The “reduction of biofilm biomass” value in the assay with S. mutans biofilms [1] (crystal violet staining) was determined as 77%. The “surface attachment / community structure by confocal microscopy” value is “no longer attached to the surface” with S. mutans biofilms [2] and “no longer attach to the surface” with S. mutans biofilms [2] (listed as mucin). Also, the “S. mutans binding to polymer coating” value is “do not strongly bind” with S. mutans and “did not bind” in the assay on S. mutans (listed as MUC5B mucin). For the same molecule, the “biofilm fraction of culture” value with S. mutans UA159 (0.5% MUC5B mucin) is recorded as 30%. Besides, the “overall (total) growth of the bacterial population / toxicity to S. mutans” value in the assay on S. mutans UA159 is given as “do not affect the overall growth”.
